One test has as its target T1, recombinant human VAP-1 (Homo sapiens, UniProt Q16853).
T1 construct: purchased R&D systems
T1 sequence (Q16853 1-763): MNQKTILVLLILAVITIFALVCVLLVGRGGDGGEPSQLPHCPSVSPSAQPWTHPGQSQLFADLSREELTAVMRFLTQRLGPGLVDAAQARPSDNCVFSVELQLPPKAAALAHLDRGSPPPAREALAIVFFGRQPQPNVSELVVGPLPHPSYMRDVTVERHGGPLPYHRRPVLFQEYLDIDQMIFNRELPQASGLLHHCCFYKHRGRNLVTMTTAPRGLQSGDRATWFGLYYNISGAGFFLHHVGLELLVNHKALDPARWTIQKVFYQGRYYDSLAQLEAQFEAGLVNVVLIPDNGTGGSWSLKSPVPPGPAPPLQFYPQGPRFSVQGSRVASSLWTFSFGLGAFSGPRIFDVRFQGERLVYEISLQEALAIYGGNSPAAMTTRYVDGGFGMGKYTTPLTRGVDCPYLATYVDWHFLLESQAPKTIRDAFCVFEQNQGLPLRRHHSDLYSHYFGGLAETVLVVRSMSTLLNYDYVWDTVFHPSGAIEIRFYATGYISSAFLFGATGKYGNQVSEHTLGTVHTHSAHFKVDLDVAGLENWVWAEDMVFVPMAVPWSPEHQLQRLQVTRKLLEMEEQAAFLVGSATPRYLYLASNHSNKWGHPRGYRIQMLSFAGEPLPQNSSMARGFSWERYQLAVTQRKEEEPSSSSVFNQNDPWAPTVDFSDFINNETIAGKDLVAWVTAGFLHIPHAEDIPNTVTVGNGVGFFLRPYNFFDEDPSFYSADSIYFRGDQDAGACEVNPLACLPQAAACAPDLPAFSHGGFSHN
As to the kind of experiment: Activity on recombinant human VAP-1, Amplex Red HRP-coupled hydrogen peroxide assay, benzylamine substrate. It is filed as biochemical. As to conditions: recombinant human VAP-1, benzylamine substrate, read-out: Inhibitory Activity (IC50, nM) human VAP-1. The protocol:
(§1) The compounds according to the present technology were evaluated in terms of activity on recombinant human VAP-1 (R&D systems) by measuring the level of hydrogen peroxide in horseradish peroxidase (HRP)-coupled reaction using Amplex Red Hydrogen Peroxide Assay Kit (Molecular Probes, Invitrogen, USA). The experiment was carried out at room temperature using benzylamine as a substrate. In the HRP-coupled reaction, hydrogen peroxide oxidation of 10-acetyl-3,7-dihydroxyphenoxazine (Amplex Red reagent) produces resorufin, which is a highly fluorescent compound. Briefly, the test compound was dissolved in dimethyl sulfoxide (DMSO) at a concentration of 20 mM. The dose-response assessment was made by 1:3 serial dilution in DMSO, thereby creating an 8 point curve. The concentration of the upper part was controlled according to the efficacy of the compounds, followed by dilution with a reaction buffer solution to obtain a final DMSO concentration less than 1%. To each well of a 96 black well plate, human VAP-1 purified in 50 mM sodium phosphate buffer solution (pH7.4) was added. The test compounds dissolved in DMSO were incubated with the human VAP-1 enzymes at 37° C. for 30 minutes. After 30-minute incubation, each well is added with a reaction mixture containing 200 uM Amplex Red reagent prepared from 50 mM sodium phosphate buffer solution (pH 7.4), 1 mM benzylamine, and 1 U/mL HRP. Fluorescence intensity was measured at several time points during 1-2 hours using a microplate reader (Flexstation3, Molecular Devices) under the wavelength condition exciting at 544 nm and reading the emission at 590 nm. The inhibitory effect of the compounds was measured as a decrease (%) in the signal rate as compared to the control group without any inhibitor (only diluted DMSO). Data was fixed to a logistic model with four variables and IC50 value was calculated using GraphPad Prism program.

Test [1] addresses T2, recombinant human DAO (diamine oxidase) (Homo sapiens, UniProt P19801).
T2 construct: purchased R&D systems
T2 sequence (P19801 20-751): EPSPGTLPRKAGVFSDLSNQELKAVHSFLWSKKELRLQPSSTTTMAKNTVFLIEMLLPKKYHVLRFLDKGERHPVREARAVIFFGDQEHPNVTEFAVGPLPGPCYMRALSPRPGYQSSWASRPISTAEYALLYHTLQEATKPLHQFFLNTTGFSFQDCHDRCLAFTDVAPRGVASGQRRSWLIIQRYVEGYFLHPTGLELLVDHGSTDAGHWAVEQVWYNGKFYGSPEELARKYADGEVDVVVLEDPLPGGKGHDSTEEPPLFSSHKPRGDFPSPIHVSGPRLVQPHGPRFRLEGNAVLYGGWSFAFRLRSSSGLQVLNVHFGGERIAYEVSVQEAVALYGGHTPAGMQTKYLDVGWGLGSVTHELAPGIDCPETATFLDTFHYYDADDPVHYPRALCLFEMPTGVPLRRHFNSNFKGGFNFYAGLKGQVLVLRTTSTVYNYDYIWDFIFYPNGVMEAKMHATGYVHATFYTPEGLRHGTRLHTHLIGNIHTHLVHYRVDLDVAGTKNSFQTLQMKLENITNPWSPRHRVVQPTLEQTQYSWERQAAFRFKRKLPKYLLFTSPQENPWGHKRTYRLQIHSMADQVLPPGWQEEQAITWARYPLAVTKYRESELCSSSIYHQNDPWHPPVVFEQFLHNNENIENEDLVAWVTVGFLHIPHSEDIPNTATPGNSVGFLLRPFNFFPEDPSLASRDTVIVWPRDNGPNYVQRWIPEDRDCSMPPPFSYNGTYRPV
As to the kind of experiment: Activity on recombinant human DAO, Amplex Red method, 1 mM putrescine substrate. It is filed as biochemical. The note with it: recombinant human DAO, read-out: Inhibitory Activity (IC50, nM) DAO. The protocol: as §1
In addition, the compounds according to the present technology were evaluated in terms of activity on a recombinant human MAO-A (monoamine oxidase-A, Sigma-Aldrich) and a recombinant human MAO-B (monoamine oxidase-B, Sigma-Aldrich) by using as substrates, 0.5 mM tyramine and 1 mM benzylamine, respectively, with a method similar to the activity evaluation method for recombinant human VAP-1. The compounds according to the present technology were also evaluated in terms of activity on a recombinant human DAO (diamine oxidase, R&D systems) by using as a substrate 1 mM putrescine with a method similar to the activity evaluation method for recombinant human VAP-1.

[2] abbreviates: 1 mM putrescine, * = between 10 and 100 nM, ** = between 300 and 1000 nM.

Consider 16 compounds from patent US11492335B2, “Aryl or heteroaryl triazolone derivatives or salts thereof, or pharmaceutical compositions comprising the same” (YUHAN CORPORATION, priority 2018, dated 2022).

Where a name gives a salt, the structure may show the parent alone. Read-outs that look alike come from different tables or passages of the source.

As to `CC(=O)Nc1cc(-c2cnc(-n3cnn(C/C(=C/F)CN)c3=O)s2)ccn1` [Example 231, N-[4-(2-{1-[(2E)-2-(aminomethyl)-3-fluoroprop-2-en-1-yl]-5-oxo-1,5-dihydro-4H-1,2,4-triazol-4-yl}-1,3-thiazol-5-yl)pyridin-2-yl]acetamide], the IC50 at recombinant human VAP-1 came out at 0.94 nM; in test [1] (1 mM putrescine substrate), 0.086 nM.

Take `Cc1cc(-c2ccc(S(C)(=O)=O)cc2)ncc1-n1cnn(C/C(=C/F)CN)c1=O` [Example 119, 2-[(2E)-2-(aminomethyl)-3-fluoroprop-2-en-1-yl]-4-{4-methyl-6-[4-(methylsulfonyl)phenyl]pyridin-3-yl}-2,4-dihydro-3H-1,2,4-triazol-3-one]: the results for the IC50 (on recombinant human VAP-1 (30 min preincubation at 37° C.); in test [1] (setting [2])) were 0.94 nM and less than 100 nM, respectively.

Regarding `CS(=O)(=O)c1ccc(-c2cccc(-n3cnn(C/C(=C\F)CN)c3=O)c2)cc1` [Example 53, 2-[(2Z)-2-(aminomethyl)-3-fluoroprop-2-en-1-yl]-4-[4′-(methylsulfonyl)biphenyl-3-yl]-2,4-dihydro-3H-1,2,4-triazol-3-one hydrochloride], the IC50 on recombinant human VAP-1 (30 min preincubation at 37° C.) was 2.5 nM; in test [1] (setting [2]) it was less than 30 nM.

Turning to `Cc1cc(N2CCNCC2)cnc1-n1cnn(C/C(=C/F)CN)c1=O` [Example 131, 2-[(2E)-2-(aminomethyl)-3-fluoroprop-2-en-1-yl]-4-[3-methyl-5-(piperazin-1-yl)pyridin-2-yl]-2,4-dihydro-3H-1,2,4-triazol-3-one], the IC50 turned out to be 8.2 nM at recombinant human VAP-1 (30 min preincubation at 37° C.) and 4200 nM in test [1] (setting [2]).

Consider `Cc1cc(-n2cnn(C/C(=C\F)CN)c2=O)ncc1Br` [Example 33, 2-[(2Z)-2-(aminomethyl)-3-fluoroprop-2-en-1-yl]-4-(5-bromo-4-methylpyridin-2-yl)-2,4-dihydro-3H-1,2,4-triazol-3-one hydrochloride], for which the IC50 on recombinant human VAP-1 (30 min preincubation at 37° C.) turned out to be 31 nM.

Regarding `Cc1c(-c2ccc3nonc3c2)cccc1-n1cnn(C/C(=C/F)CN)c1=O` [Example 113, 2-[(2E)-2-(aminomethyl)-3-fluoroprop-2-en-1-yl]-4-[3-(2,1,3-benzooxadiazol-5-yl)-2-methylphenyl]-2,4-dihydro-3H-1,2,4-triazol-3-one], the IC50 at recombinant human VAP-1 (30 min preincubation at 37° C.) is 2.3 nM; in test [1] (setting [2]) it was less than 1000 nM.

Consider `Cc1cc(-c2cccc(-c3nc[nH]n3)c2)ncc1-n1cnn(C/C(=C/F)CN)c1=O` [Example 122, 2-[(2E)-2-(aminomethyl)-3-fluoroprop-2-en-1-yl]-4-{4-methyl-6-[3-(1H-1,2,4-triazol-3-yl)phenyl]pyridin-3-yl}-2,4-dihydro-3H-1,2,4-triazol-3-one], for which the IC50 is 0.77 nM at recombinant human VAP-1 (30 min preincubation at 37° C.) and less than 100 nM in test [1] (setting [2]).

Turning to `COc1cc(N2CCOCC2)c(Br)cc1-n1cnn(C/C(=C/F)CN)c1=O` [Example 47, 2-[(2E)-2-(aminomethyl)-3-fluoroprop-2-en-1-yl]-4-[5-bromo-2-methoxy-4-(morpholin-4-yl)phenyl]-2,4-dihydro-3H-1,2,4-triazol-3-one hydrochloride], the IC50 on recombinant human VAP-1 (30 min preincubation at 37° C.) is 2.8 nM; in test [1] (setting [2]) it was 1200 nM.

As for `NC/C(=C/F)Cn1ncn(-c2ccc(Br)cc2)c1=O` [Example 1, 2-[(2Z)-2-(aminomethyl)-3-fluoroprop-2-en-1-yl]-4-(4-bromophenyl)-2,4-dihydro-3H-1,2,4-triazol-3-one], the IC50 at recombinant human VAP-1 (30 min preincubation at 37° C.) was determined as 17 nM.

With `Cc1cc(Br)ncc1-n1cnn(C/C(=C/F)CN)c1=O` [Example 28, 2-[(2E)-2-(aminomethyl)-3-fluoroprop-2-en-1-yl]-4-(6-bromo-4-methylpyridin-3-yl)-2,4-dihydro-3H-1,2,4-triazol-3-one hydrochloride], the IC50 worked out at 45 nM at recombinant human VAP-1 (30 min preincubation at 37° C.) and 1100 nM in test [1] (setting [2]).

Consider `Cc1cc(-c2ccc3nonc3c2)ncc1-n1cnn(C/C(=C/F)CN)c1=O` [Example 125, 2-[(2E)-2-(aminomethyl)-3-fluoroprop-2-en-1-yl]-4-[6-(2,1,3-benzooxadiazol-5-yl)-4-methylpyridin-3-yl]-2,4-dihydro-3H-1,2,4-triazol-3-one], for which the IC50 at recombinant human VAP-1 (30 min preincubation at 37° C.) is 1.2 nM; in test [1] (setting [2]), less than 100 nM.

Take `NC/C(=C/F)Cn1ncn(-c2cccc(-c3cccc(-c4nnc[nH]4)c3)c2)c1=O` [Example 60, 2-[(2Z)-2-(aminomethyl)-3-fluoroprop-2-en-1-yl]-4-[3′-(4H-1,2,4-triazol-3-yl)biphenyl-3-yl]-2,4-dihydro-3H-1,2,4-triazol-3-one]: the IC50 at recombinant human VAP-1 (30 min preincubation at 37° C.) is 1.3 nM; in test [1] (setting [2]), less than 100 nM.

Take `Cc1cc(Br)cnc1-n1cnn(C/C(=C\F)CN)c1=O` [Example 31, 2-[(2Z)-2-(aminomethyl)-3-fluoroprop-2-en-1-yl]-4-(5-bromo-3-methylpyridin-2-yl)-2,4-dihydro-3H-1,2,4-triazol-3-one hydrochloride]: on recombinant human VAP-1 (30 min preincubation at 37° C.), the IC50 stood at 47 nM.

For the compound `NC/C(=C\F)Cn1ncn(-c2cccc(-c3ccc(-c4noc(=O)[nH]4)cc3)n2)c1=O` [Example 182, 3-[4-(6-{1-[(2E)-2-(aminomethyl)-3-fluoroprop-2-en-1-yl]-5-oxo-1,5-dihydro-4H-1,2,4-triazol-4-yl}pyridin-2-yl)phenyl]-1,2,4-oxadiazol-5(4H)-one hydrochloride], the IC50 at recombinant human VAP-1 is 23 nM.

On to `NC/C(=C\F)Cn1ncn(-c2cccc(-c3cncc4ccccc34)c2)c1=O` [Example 104, 2-[(2E)-2-(aminomethyl)-3-fluoroprop-2-en-1-yl]-4-[3-(isoquinolin-4-yl)phenyl]-2,4-dihydro-3H-1,2,4-triazol-3-one hydrochloride], for which the values for the IC50 (on recombinant human VAP-1 (30 min preincubation at 37° C.); in test [1] (setting [2])) were 3 nM and 54 nM, respectively.

Turning to `NC/C(=C\F)Cn1ncn(-c2ncc(-c3ccc4c(c3)NC(=O)C4)s2)c1=O` [Example 233, 6-(2-{1-[(2E)-2-(aminomethyl)-3-fluoroprop-2-en-1-yl]-5-oxo-1,5-dihydro-4H-1,2,4-triazol-4-yl}-1,3-thiazol-5-yl)-1,3-dihydro-2H-indol-2-one], the IC50 on recombinant human VAP-1 turned out to be 1.7 nM; in test [1] (1 mM putrescine substrate), 1.2 nM.
